According to the NIST ThermoML archive (doi:10.1021/je0501078):

Assay: molar heat capacity at saturation pressure

O=C1CCCCC1C1(O)CCCCC1 (stereo unspecified) [1'-hydroxy-[1,1'-bicyclohexyl]-2-one]
Conditions	molar heat capacity [J/K/mol]
5.16 K, Crystal	0.533
5.41 K, Crystal	0.6159
5.68 K, Crystal	0.7141
5.97 K, Crystal	0.8182
6.29 K, Crystal	0.9686
6.62 K, Crystal	1.137
6.94 K, Crystal	1.337
7.27 K, Crystal	1.564
7.69 K, Crystal	1.849
8.09 K, Crystal	2.166
8.51 K, Crystal	2.524
8.97 K, Crystal	2.903
9.4 K, Crystal	3.307
9.86 K, Crystal	3.764
10.32 K, Crystal	4.247
10.8 K, Crystal	4.745
11.34 K, Crystal	5.386
11.91 K, Crystal	6.078
12.5 K, Crystal	6.783
13.09 K, Crystal	7.518
13.65 K, Crystal	8.27
14.26 K, Crystal	9.088
14.87 K, Crystal	9.894
15.47 K, Crystal	10.71
16.12 K, Crystal	11.66
16.79 K, Crystal	12.66
17.47 K, Crystal	13.66
18.17 K, Crystal	14.72
18.86 K, Crystal	15.8
19.61 K, Crystal	16.87
20.52 K, Crystal	18.24
21.52 K, Crystal	19.81
22.54 K, Crystal	21.36
23.56 K, Crystal	22.97
24.68 K, Crystal	24.67
25.89 K, Crystal	26.58
27.12 K, Crystal	28.34
28.37 K, Crystal	30.15
29.78 K, Crystal	32.21
31.31 K, Crystal	34.26
32.81 K, Crystal	36.25
34.25 K, Crystal	38.29
35.69 K, Crystal	40.02
37.25 K, Crystal	42.05
38.95 K, Crystal	44.28
40.79 K, Crystal	46.36
42.67 K, Crystal	48.72
44.41 K, Crystal	50.59
46.25 K, Crystal	52.77
48.19 K, Crystal	54.67
50.08 K, Crystal	56.63
51.93 K, Crystal	58.46
53.83 K, Crystal	60.66
55.82 K, Crystal	62.66
57.81 K, Crystal	64.39
59.76 K, Crystal	66.21
61.73 K, Crystal	68.03
63.72 K, Crystal	69.96
65.71 K, Crystal	71.5
67.67 K, Crystal	73.51
69.76 K, Crystal	75.35
72.08 K, Crystal	77.34
74.55 K, Crystal	79.53
76.99 K, Crystal	81.52
79.43 K, Crystal	83.56
81.9 K, Crystal	85.64
84.37 K, Crystal	87.8
86.86 K, Crystal	89.8
89.34 K, Crystal	92.04
91.79 K, Crystal	93.87
94.27 K, Crystal	96.03
96.74 K, Crystal	97.94
99.23 K, Crystal	100.3
99.86 K, Crystal	100.6
101.72 K, Crystal	102.1
101.89 K, Crystal	102.2
103.96 K, Crystal	103.9
104.22 K, Crystal	104.1
106 K, Crystal	105.5
108.09 K, Crystal	107.2
110.22 K, Crystal	108.8
112.32 K, Crystal	110.3
114.47 K, Crystal	112.2
116.67 K, Crystal	113.7
118.84 K, Crystal	115.6
120.97 K, Crystal	117
123.07 K, Crystal	118.7
125.14 K, Crystal	120.4
127.19 K, Crystal	122.1
129.21 K, Crystal	123.6
131.21 K, Crystal	125.2
133.17 K, Crystal	126.7
135.12 K, Crystal	128.2
137.05 K, Crystal	129.6
138.96 K, Crystal	131.3
141 K, Crystal	132.8
143.17 K, Crystal	134.4
145.31 K, Crystal	136.2
147.42 K, Crystal	137.7
149.52 K, Crystal	139.4
149.69 K, Crystal	139.5
151.77 K, Crystal	141.3
153.83 K, Crystal	142.8
155.94 K, Crystal	144.7
158.11 K, Crystal	146.2
160.26 K, Crystal	148.1
162.4 K, Crystal	149.6
164.58 K, Crystal	151.5
166.82 K, Crystal	153.1
169.05 K, Crystal	154.8
171.25 K, Crystal	156.7
173.43 K, Crystal	158.6
175.59 K, Crystal	160.1
177.74 K, Crystal	162
179.87 K, Crystal	163.8
181.98 K, Crystal	165.4
184.22 K, Crystal	167.4
186.58 K, Crystal	169.1
188.92 K, Crystal	171.2
191.24 K, Crystal	172.9
193.62 K, Crystal	174.9
196.06 K, Crystal	176.6
198.49 K, Crystal	179
200.89 K, Crystal	180.8
203.28 K, Crystal	182.7
205.65 K, Crystal	184.8
208.08 K, Crystal	186.7
210.57 K, Crystal	188.6
213.04 K, Crystal	191
215.63 K, Crystal	192.9
218.36 K, Crystal	195.1
220.54 K, Crystal	197.1
223.28 K, Crystal	199.4
226 K, Crystal	201.5
228.71 K, Crystal	203.8
231.37 K, Crystal	206.2
234.03 K, Crystal	209.2
236.67 K, Crystal	210.8
239.45 K, Crystal	214
242.37 K, Crystal	216.3
245.3 K, Crystal	218.9
248.2 K, Crystal	221.7
251.09 K, Crystal	224
253.97 K, Crystal	227.2
256.81 K, Crystal	229.6
259.61 K, Crystal	232.7
262.37 K, Crystal	235.2
265.1 K, Crystal	238.8
267.8 K, Crystal	241.5
270.46 K, Crystal	244.1
273.22 K, Crystal	247.9
274.83 K, Crystal	249.2
276.1 K, Crystal	250.8
277.41 K, Crystal	252.4
278.95 K, Crystal	254.3
279.97 K, Crystal	255.8
281.77 K, Crystal	257.8
282.51 K, Crystal	258.4
284.57 K, Crystal	261.4
285.02 K, Crystal	262
287.35 K, Crystal	264.2
287.51 K, Crystal	264.9
289.97 K, Crystal	267.6
290.11 K, Crystal	268.6
292.4 K, Crystal	271.5
292.83 K, Crystal	271.4
294.18 K, Crystal	273.5
295.66 K, Crystal	275.3
308.34 K, Liquid	351
310.04 K, Liquid	351.5
311.73 K, Liquid	353.4
